Assay [1] deals with Motilin receptor (Homo sapiens) (UniProt O43193). The note with it: Compound concentration 10.0 uM.
For assay [2], the target named is Endothelin-1 receptor (Homo sapiens) (UniProt P25101). The conditions noted are these: Compound concentration 10.0 uM.
Assay [3] addresses Sodium-dependent dopamine transporter (Homo sapiens, UniProt Q01959). The note with it: Compound concentration 10.0 uM.
Assay [4] concerns the target D(3) dopamine receptor (Homo sapiens) (UniProt P35462). The note with it: Compound concentration 10.0 uM.
Assay [5] deals with Beta-2 adrenergic receptor (Homo sapiens) (UniProt P07550). The conditions noted are these: Compound concentration 10.0 uM.
Chain of Beta-2 adrenergic receptor (Homo sapiens) (P07550 whole entry, looked up): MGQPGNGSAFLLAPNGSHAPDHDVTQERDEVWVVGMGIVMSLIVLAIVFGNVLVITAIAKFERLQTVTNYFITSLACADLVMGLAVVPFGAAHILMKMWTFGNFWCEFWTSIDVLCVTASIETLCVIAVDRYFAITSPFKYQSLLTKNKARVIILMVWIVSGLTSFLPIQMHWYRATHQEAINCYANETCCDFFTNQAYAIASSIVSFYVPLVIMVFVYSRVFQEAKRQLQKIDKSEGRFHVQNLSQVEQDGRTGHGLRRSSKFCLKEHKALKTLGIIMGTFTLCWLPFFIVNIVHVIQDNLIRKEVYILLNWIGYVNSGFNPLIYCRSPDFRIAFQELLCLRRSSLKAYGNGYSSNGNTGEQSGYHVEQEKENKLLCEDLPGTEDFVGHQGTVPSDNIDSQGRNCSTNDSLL
Assay [6] addresses 5-hydroxytryptamine receptor 5A (Homo sapiens) (UniProt P47898). The note with it: Compound concentration 10.0 uM.
For assay [7], the target named is Adenosine receptor A2a (Homo sapiens) (UniProt P29274). The note with it: Compound concentration 10.0 uM.
Assay [8] concerns the target D(1A) dopamine receptor (Homo sapiens) (UniProt P21728). The conditions noted are these: Compound concentration 10.0 uM.
The target of assay [9] is Glutamate receptor 2 (Homo sapiens) (UniProt P42262). The note with it: Rattus norvegicus; Compound concentration 10.0 uM.
Assay [10] addresses T1, Muscarinic acetylcholine receptor M4 (Homo sapiens) (UniProt P08173).
T1 sequence (whole entry): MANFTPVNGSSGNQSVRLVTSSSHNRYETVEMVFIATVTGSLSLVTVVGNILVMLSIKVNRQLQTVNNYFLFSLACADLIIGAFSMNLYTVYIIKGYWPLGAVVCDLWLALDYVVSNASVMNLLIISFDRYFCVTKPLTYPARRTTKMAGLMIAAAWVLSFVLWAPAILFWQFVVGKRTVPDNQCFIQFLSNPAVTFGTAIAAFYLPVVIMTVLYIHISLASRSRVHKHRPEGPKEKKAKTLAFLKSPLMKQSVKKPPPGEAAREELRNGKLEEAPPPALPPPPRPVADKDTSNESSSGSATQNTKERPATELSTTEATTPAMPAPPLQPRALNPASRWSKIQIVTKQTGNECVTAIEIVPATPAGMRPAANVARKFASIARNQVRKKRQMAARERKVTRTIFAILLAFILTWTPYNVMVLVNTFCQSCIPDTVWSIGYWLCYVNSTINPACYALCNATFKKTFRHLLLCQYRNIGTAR
The conditions noted are these: Compound concentration 10.0 uM.

For assay [11], the target named is Type-1 angiotensin II receptor (Homo sapiens) (UniProt P30556). The conditions noted are these: Compound concentration 10.0 uM.
For assay [12], the target named is Kappa-type opioid receptor (Homo sapiens) (UniProt P41145). The note with it: Compound concentration 10.0 uM.
Chain of Kappa-type opioid receptor (Homo sapiens) (P41145 whole entry): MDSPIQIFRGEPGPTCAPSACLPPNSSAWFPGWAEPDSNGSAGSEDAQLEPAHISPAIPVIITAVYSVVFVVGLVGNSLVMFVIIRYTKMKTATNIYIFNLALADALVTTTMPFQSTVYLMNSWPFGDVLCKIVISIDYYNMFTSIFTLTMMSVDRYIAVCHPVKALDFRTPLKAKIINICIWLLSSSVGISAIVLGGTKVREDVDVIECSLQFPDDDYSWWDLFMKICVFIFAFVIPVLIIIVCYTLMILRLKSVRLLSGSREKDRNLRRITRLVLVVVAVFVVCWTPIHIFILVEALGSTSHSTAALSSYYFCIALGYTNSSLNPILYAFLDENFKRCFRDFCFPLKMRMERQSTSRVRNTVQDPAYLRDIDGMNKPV
Assay [13] deals with Glutamate NMDA receptor (Rattus norvegicus) (UniProt P35439+Q00959+Q00960+Q00961+Q62645+Q8VHN2+Q9R1M7). The conditions noted are these: Compound concentration 10.0 uM.
The target of assay [14] is Histamine H3 receptor (Homo sapiens) (UniProt Q9Y5N1). The note with it: Compound concentration 10.0 uM.
Chain of Histamine H3 receptor (Homo sapiens) (Q9Y5N1 whole entry): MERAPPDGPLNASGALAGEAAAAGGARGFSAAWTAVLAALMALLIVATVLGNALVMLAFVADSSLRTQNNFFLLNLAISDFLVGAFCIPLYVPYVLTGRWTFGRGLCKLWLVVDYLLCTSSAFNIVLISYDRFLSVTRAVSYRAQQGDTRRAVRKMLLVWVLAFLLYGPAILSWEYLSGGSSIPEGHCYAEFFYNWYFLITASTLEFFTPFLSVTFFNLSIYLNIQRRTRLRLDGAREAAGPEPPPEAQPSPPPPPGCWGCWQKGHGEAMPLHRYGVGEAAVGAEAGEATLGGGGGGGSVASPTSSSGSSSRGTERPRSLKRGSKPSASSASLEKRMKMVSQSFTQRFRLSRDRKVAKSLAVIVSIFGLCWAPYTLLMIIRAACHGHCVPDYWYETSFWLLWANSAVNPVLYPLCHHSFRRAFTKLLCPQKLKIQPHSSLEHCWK
The target of assay [15] is Insulin receptor (Homo sapiens) (UniProt P06213). The note with it: Rattus norvegicus; Compound concentration 10.0 uM.
The species entered for a further assay is Homo sapiens. In words: Inhibition of Nicotinic Acetylcholine at compound concentration of 10.0 uM in the Eurofins-Panlabs radioligand binding assay (Eurofins_assay_258590). The note with it: Compound concentration 10.0 uM. The class given is protein-complex assay.
A further assay is filed under the species Oryctolagus cuniculus. In words: Inhibition of Purinergic P2X at 10 µM in the Eurofins-Panlabs radioligand binding assay (Eurofins_assay_268700). The assay is classed as protein assay. The note with it: Compound concentration 10.0 uM.
In assay [16] the target is D(2) dopamine receptor (Homo sapiens) (UniProt P14416). The conditions noted are these: Compound concentration 10.0 uM.
Chain of D(2) dopamine receptor (Homo sapiens) (P14416 whole entry): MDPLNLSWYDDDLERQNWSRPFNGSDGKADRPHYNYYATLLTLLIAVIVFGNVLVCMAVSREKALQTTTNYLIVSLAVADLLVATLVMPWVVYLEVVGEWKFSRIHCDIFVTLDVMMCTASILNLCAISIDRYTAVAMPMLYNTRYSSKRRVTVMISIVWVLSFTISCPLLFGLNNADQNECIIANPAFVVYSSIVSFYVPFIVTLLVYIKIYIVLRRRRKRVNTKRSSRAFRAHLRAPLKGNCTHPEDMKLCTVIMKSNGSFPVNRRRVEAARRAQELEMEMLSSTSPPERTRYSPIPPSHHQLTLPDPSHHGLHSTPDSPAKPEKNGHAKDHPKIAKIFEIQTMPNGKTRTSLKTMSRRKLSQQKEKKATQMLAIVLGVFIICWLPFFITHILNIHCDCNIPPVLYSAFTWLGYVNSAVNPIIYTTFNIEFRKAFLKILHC
The target of assay [17] is Adenosine Transporter (Cavia porcellus) (UniProt H0V4R7+H0UUG1+H0V3Z5). In words: Inhibition of Transporter, Adenosine at compound concentration of 10.0 uM in the Eurofins-Panlabs radioligand binding assay (Eurofins_assay_202000). The conditions noted are these: Compound concentration 10.0 uM. The class given is protein assay. Also on record: ligand concentration 0.5 nM, non-specific ligand with concentration 5 uM Nitrobenzylthioinosine, incubation time 30 min, incubation temperature 25 C.

In assay [18] the target is Cannabinoid receptor 2 (Homo sapiens) (UniProt P34972). The note with it: Compound concentration 10.0 uM.
Chain of Cannabinoid receptor 2 (Homo sapiens) (P34972 whole entry): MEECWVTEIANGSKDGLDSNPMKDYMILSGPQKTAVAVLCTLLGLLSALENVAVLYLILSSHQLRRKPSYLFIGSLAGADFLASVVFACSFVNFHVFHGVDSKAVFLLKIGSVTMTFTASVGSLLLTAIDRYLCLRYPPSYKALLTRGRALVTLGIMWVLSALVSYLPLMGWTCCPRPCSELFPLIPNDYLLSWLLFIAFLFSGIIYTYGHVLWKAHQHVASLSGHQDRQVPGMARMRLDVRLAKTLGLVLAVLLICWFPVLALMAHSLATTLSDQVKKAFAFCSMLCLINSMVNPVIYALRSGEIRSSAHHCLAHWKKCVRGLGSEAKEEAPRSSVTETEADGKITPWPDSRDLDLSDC
In assay [19] the target is Progesterone receptor (Homo sapiens) (UniProt P06401). The conditions noted are these: Compound concentration 10.0 uM.
Chain of Progesterone receptor (Homo sapiens) (P06401 whole entry): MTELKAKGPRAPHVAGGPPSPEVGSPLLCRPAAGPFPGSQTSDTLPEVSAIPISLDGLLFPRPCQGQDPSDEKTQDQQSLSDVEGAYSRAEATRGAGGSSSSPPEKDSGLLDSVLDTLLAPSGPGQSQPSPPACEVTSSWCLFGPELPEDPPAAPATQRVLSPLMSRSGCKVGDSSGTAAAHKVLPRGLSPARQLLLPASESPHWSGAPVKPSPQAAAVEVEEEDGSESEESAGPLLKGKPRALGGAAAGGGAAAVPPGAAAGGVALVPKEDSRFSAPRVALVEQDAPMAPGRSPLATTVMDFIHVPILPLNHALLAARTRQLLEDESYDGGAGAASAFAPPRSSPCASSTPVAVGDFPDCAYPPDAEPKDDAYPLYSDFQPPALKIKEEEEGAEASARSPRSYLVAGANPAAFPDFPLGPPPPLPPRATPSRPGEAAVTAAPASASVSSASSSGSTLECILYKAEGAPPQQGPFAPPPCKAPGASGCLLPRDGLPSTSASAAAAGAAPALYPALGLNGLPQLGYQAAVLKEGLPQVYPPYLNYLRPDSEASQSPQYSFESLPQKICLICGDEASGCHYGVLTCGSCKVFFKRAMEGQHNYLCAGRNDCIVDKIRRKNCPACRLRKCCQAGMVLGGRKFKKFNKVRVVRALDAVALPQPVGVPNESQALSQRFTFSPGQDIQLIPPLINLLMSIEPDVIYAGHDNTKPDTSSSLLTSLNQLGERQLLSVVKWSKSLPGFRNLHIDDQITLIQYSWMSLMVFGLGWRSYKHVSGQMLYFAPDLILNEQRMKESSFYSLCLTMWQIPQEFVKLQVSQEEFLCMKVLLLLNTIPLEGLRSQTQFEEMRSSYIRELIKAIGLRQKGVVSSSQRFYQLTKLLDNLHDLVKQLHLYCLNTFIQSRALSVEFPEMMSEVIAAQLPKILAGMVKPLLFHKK
Assay [20] addresses Growth hormone secretagogue receptor type 1 (Homo sapiens) (UniProt Q92847). The conditions noted are these: Compound concentration 10.0 uM.
In assay [21] the target is Sodium-dependent serotonin transporter (Homo sapiens) (UniProt P31645). The note with it: Compound concentration 10.0 uM.
In assay [22] the target is Androgen receptor (Homo sapiens) (UniProt P10275). The conditions noted are these: Compound concentration 10.0 uM.
Assay [23] concerns the target D(2) dopamine receptor (Homo sapiens) (UniProt P14416). The conditions noted are these: Compound concentration 10.0 uM. This is another data set of the same source.

Among the data in ChEMBL document CHEMBL4507328, “Data for DCP probe BAY-390” (2021) are inhibition values, retold here.

Each structure is given as a SMILES string.

Chain of Growth hormone secretagogue receptor type 1 (Homo sapiens) (Q92847 whole entry): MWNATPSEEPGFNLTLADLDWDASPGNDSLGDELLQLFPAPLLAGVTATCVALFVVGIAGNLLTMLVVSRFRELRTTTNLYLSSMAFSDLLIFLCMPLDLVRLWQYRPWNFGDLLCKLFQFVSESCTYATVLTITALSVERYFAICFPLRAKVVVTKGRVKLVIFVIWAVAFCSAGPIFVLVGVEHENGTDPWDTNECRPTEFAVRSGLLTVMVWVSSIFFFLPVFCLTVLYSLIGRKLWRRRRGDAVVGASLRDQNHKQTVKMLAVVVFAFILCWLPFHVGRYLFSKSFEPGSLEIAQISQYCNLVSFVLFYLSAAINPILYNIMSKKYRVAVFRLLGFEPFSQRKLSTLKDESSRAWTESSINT
Chain of Endothelin-1 receptor (Homo sapiens) (P25101 whole entry): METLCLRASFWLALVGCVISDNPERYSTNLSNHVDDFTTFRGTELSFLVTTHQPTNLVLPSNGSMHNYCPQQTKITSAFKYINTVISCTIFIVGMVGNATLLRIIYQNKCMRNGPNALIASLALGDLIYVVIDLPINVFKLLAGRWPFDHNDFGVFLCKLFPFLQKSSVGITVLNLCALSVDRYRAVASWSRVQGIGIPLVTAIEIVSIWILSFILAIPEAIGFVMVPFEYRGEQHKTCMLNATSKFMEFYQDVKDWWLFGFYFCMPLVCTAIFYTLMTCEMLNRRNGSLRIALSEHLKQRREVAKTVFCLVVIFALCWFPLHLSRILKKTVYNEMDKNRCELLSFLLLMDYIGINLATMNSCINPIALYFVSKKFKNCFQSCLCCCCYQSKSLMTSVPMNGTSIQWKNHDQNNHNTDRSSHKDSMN
Chain of Motilin receptor (Homo sapiens) (O43193 whole entry): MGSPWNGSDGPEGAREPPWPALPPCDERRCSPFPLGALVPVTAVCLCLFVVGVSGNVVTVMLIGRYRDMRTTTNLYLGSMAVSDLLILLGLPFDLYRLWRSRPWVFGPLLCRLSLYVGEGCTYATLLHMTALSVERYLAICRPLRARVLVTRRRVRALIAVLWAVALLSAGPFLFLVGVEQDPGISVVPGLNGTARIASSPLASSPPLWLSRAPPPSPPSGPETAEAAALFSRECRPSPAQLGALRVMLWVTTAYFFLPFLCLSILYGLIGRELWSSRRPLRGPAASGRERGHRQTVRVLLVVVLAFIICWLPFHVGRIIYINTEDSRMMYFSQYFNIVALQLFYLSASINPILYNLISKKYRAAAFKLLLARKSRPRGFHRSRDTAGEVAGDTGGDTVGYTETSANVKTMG
Chain of D(1A) dopamine receptor (Homo sapiens) (P21728 whole entry): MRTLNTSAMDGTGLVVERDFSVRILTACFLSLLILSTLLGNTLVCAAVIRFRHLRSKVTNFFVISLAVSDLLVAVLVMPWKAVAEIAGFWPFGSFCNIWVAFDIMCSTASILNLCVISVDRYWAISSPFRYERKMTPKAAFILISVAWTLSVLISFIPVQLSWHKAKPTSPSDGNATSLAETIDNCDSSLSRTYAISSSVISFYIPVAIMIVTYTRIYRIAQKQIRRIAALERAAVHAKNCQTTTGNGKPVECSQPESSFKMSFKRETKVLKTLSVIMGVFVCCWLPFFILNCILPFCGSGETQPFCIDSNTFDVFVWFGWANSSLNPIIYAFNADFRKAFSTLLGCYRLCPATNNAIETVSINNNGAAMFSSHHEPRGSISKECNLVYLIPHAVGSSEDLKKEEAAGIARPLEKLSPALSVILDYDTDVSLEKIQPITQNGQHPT

The term inhibition denotes the relative decrease from the control value, in per cent. Regarding `O[C@]1(C(F)(F)F)CCCC[C@H]1Nc1ccc(F)cc1` [BAY-390], the inhibition was 13% in assay [1]; 7% in assay [2]; 84% in [3]; 9% in assay [4]; 11% in assay [5]; -7.74% in assay [6]. The inhibition in [7] was 3%; in assay [8], 15.6%; in assay [9] it was 8%; in assay [10], 14%; in assay [11], 4%; in assay [12], 7%. Also, the inhibition is 5% in assay [13]; -4% in assay [14]; 8% in assay [15]; -7% in the assay listed under Homo sapiens; 3% in the assay listed under Oryctolagus cuniculus; 12% in assay [16]. The inhibition in [17] was -2%; in assay [18] it was 21%; in assay [19], 65%; in assay [20], 3%; in assay [21] it was 3%; in assay [22], 47%.

For the compound `COc1cc(N[C@@H]2CCCC[C@]2(O)C(F)(F)F)ccc1F` [BAY-9897], the inhibition in [23] was -4.34%.
